Data taken from PubChem BioAssay AID268 (DTP/NCI, 2004).
“And” between values parts separate entries of the source, which are not always exact repeats. Equal values may be shown once.

System: CD2F1 mice, P1798 lymphosarcoma sc, tumor weight T/C
Assay: NCI In Vivo Anticancer Drug Screen. Data for tumor model P1798 Lymphosarcoma (subcutaneous) in CD2F1 (CDF1) mice
Details: endpoint: mean tumor weight, higher = larger tumour
Description: The antitumor activity of compounds was measured in mice bearing transplantable tumors. Survival or tumor size were measured and the results are expressed as the measurement made in the treated group (T) divided by the measurement made in the vehicle treated control group (C). The tumor model used in this assay is P1798 Lymphosarcoma (subcutaneous) in CD2F1 (CDF1) mice

[1] = dose: 50.0 mg/kg/injection, schedule: Q01DX010 (ip), vehicle: saline
[2] = dose: 100.0 mg/kg/injection, schedule: Q01DX010 (ip), vehicle: saline
[3] = dose: 200.0 mg/kg/injection, schedule: Q01DX010 (ip), vehicle: saline
[4] = dose: 12.5 mg/kg/injection, schedule: Q01DX010 (ip), vehicle: saline
[5] = dose: 25.0 mg/kg/injection, schedule: Q01DX010 (ip), vehicle: saline
[6] = dose: 400.0 mg/kg/injection, schedule: Q01DX010 (ip), vehicle: saline
[7] = dose: 125.0 mg/kg/injection, schedule: Q01DX010 (sc), vehicle: steriod suspending solution
[8] = dose: 250.0 mg/kg/injection, schedule: Q01DX010 (sc), vehicle: steriod suspending solution
[9] = dose: 500.0 mg/kg/injection, schedule: Q01DX010 (sc), vehicle: steriod suspending solution
[10] = dose: 25.0 mg/kg/injection, schedule: Q01DX010 (sc), vehicle: steriod suspending solution

Compound: CN(C)N=Nc1cccc([N+](=O)[O-])c1
- T/C (dose: 55.0 mg/kg/injection, schedule: Q01DX011 (ip), vehicle: saline): 82 % of control
- T/C (dose: 80.0 mg/kg/injection, schedule: Q01DX011 (ip), vehicle: saline): 188 % of control
- T/C (dose: 120.0 mg/kg/injection, schedule: Q01DX011 (ip), vehicle: saline): 89 % of control
- T/C (dose: 178.0 mg/kg/injection, schedule: Q01DX010 (ip), vehicle: saline): 49 % of control
- T/C (dose: 178.0 mg/kg/injection, schedule: Q01DX011 (ip), vehicle: saline): 113 % of control
- T/C (dose: 267.0 mg/kg/injection, schedule: Q01DX010 (ip), vehicle: saline): 74 % of control

Compound: CCCSc1ncnc2nc[nH]c12
- T/C (dose: 125.0 mg/kg/injection, schedule: Q01DX010 (ip), vehicle: saline): 21 % of control

Compound: Cc1cc2nc3c(=O)[nH]c(=O)nc-3n(CC(O)C(O)C(O)C(O)CO)c2cc1C (stereo unspecified)
- T/C [1]: 86 % of control
- T/C [2]: 88 % of control
- T/C [3]: 58 % of control

Compound: Cc1cc(N(CCCl)CCCl)ccc1N=Nc1ccccc1C(=O)O
- T/C (dose: 5.0 mg/kg/injection, schedule: Q01DX010 (ip), vehicle: saline): 72 % of control and 79 % of control
- T/C (dose: 10.0 mg/kg/injection, schedule: Q01DX010 (ip), vehicle: saline): 16 % of control and 23 % of control
- T/C (dose: 20.0 mg/kg/injection, schedule: Q01DX010 (ip), vehicle: saline): 10 % of control

Compound: O=C(NCCCCC(NC(=O)OCc1ccccc1)C(=O)NCCCCCCNCCCCCCNC(=O)C(CCCCNC(=O)OCc1ccccc1)NC(=O)OCc1ccccc1)OCc1ccccc1 (stereo unspecified)
- T/C [4]: 78 % of control
- T/C [5]: 66 % of control
- T/C [2]: 44 % of control and 61 % of control
- T/C [3]: 70 % of control

Compound: CO[C@@H]1[C@@H](OC2OC(C)C(OC3CC(C)(O)C(OC(=O)CC(C)C)C(C)O3)C(N(C)C)C2O)[C@@H](CC=O)C[C@@H](C)C(=O)/C=C/C2O[C@H]2C[C@@H](C)OC(=O)C[C@H]1OC(C)=O (stereo partly specified)
- T/C [1]: 89 % of control
- T/C (dose: 75.0 mg/kg/injection, schedule: Q01DX010 (ip), vehicle: saline): 105 % of control
- T/C [2]: 90 % of control
- T/C (dose: 150.0 mg/kg/injection, schedule: Q01DX010 (ip), vehicle: saline): 90 % of control
- T/C [3]: 95 % of control
- T/C (dose: 300.0 mg/kg/injection, schedule: Q01DX010 (ip), vehicle: saline): 21 % of control
- T/C [6]: 71 % of control

Compound: NCC(=O)NCCCCCCNCCCCCCNC(=O)CN
- T/C [1]: 82 % of control
- T/C [2]: 113 % of control
- T/C [3]: 89 % of control
- T/C [6]: 73 % of control

Compound: CCn1cnc2c(=S)nc[nH]c21
- T/C (dose: 62.5 mg/kg/injection, schedule: Q01DX010 (ip), vehicle: saline): 96 % of control and 79 % of control

Compound: O=c1ccc2ccccc2o1
- T/C (dose: 110.0 mg/kg/injection, schedule: Q01DX011 (ip), vehicle: carboxymethylcellulose (CMC)): 69 % of control
- T/C (dose: 165.0 mg/kg/injection, schedule: Q01DX011 (ip), vehicle: carboxymethylcellulose (CMC)): 54 % of control

Compound: CCC(=O)O[C@H]1CC[C@H]2[C@@H]3CC[C@H]4CC(=O)[C@H](C)C[C@]4(C)[C@H]3CC[C@]12C
- T/C (dose: 15.6 mg/kg/injection, schedule: Q01DX010 (sc), vehicle: steriod suspending solution): 110 % of control
- T/C (dose: 31.3 mg/kg/injection, schedule: Q01DX010 (sc), vehicle: steriod suspending solution): 120 % of control
- T/C (dose: 62.5 mg/kg/injection, schedule: Q01DX010 (sc), vehicle: steriod suspending solution): 112 % of control
- T/C [7]: 91 % of control and 77 % of control
- T/C [8]: 88 % of control
- T/C [9]: 96 % of control
- T/C (dose: 1000.0 mg/kg/injection, schedule: Q01DX010 (sc), vehicle: steriod suspending solution): 88 % of control

Compound: O=C(O)C(=O)O.[U]
- T/C (dose: 1.56 mg/kg/injection, schedule: Q01DX010 (ip), vehicle: saline): 64 % of control
- T/C (dose: 3.13 mg/kg/injection, schedule: Q01DX010 (ip), vehicle: saline): 45 % of control
- T/C (dose: 6.25 mg/kg/injection, schedule: Q01DX010 (ip), vehicle: saline): 28 % of control
- T/C [4]: 30 % of control

Compound: C=C1C[C@H]2[C@@H]3C=C(C)C4=CC(=O)CC[C@]4(C)[C@H]3CC[C@]2(C)[C@@]1(OC(C)=O)C(C)=O
- T/C (dose: 12.5 mg/kg/injection, schedule: Q01DX010 (sc), vehicle: steriod suspending solution): 109 % of control and 116 % of control
- T/C [10]: 84 % of control
- T/C (dose: 50.0 mg/kg/injection, schedule: Q01DX010 (sc), vehicle: steriod suspending solution): 120 % of control
- T/C (dose: 125.0 mg/kg/injection, schedule: Q01DX001 (sc), vehicle: steriod suspending solution): 87 % of control
- T/C [7]: 124 % of control
- T/C (dose: 125.0 mg/kg/injection, schedule: Q02DX005 (sc), vehicle: steriod suspending solution): 117 % of control
- T/C (dose: 250.0 mg/kg/injection, schedule: Q01DX001 (sc), vehicle: steriod suspending solution): 151 % of control and 160 % of control
- T/C [8]: 76 % of control
- T/C (dose: 250.0 mg/kg/injection, schedule: Q02DX005 (sc), vehicle: steriod suspending solution): 110 % of control
- T/C (dose: 500.0 mg/kg/injection, schedule: Q01DX001 (sc), vehicle: steriod suspending solution): 74 % of control and 80 % of control
- T/C [9]: 85 % of control
- T/C (dose: 500.0 mg/kg/injection, schedule: Q02DX005 (sc), vehicle: steriod suspending solution): 96 % of control
- T/C (dose: 1000.0 mg/kg/injection, schedule: Q01DX001 (sc), vehicle: steriod suspending solution): 100 % of control and 112 % of control

Compound: CC(=O)NCCCCCCCCCCNC(C)=O
- T/C [1]: 96 % of control
- T/C [2]: 113 % of control
- T/C [3]: 93 % of control
- T/C [6]: 76 % of control

Compound: COC1=C(N)C(=O)c2nc(-c3nc(C(=O)O)c(C)c(-c4ccc(OC)c(OC)c4O)c3N)ccc2C1=O
- T/C (dose: 0.06 mg/kg/injection, schedule: Q01DX010 (ip), vehicle: other): 45 % of control
- T/C (dose: 0.09 mg/kg/injection, schedule: Q01DX010 (ip), vehicle: other): 48 % of control
- T/C (dose: 0.13 mg/kg/injection, schedule: Q01DX010 (ip), vehicle: other): 43 % of control
- T/C (dose: 0.2 mg/kg/injection, schedule: Q01DX010 (ip), vehicle: saline): 28 % of control

Compound: c1ccc(CSc2ncnc3nc[nH]c23)cc1
- T/C [4]: 70 % of control and 82 % of control
- T/C [5]: 83 % of control and 85 % of control
- T/C [2]: 13 % of control

Compound: C#C[C@]1(O)CC[C@H]2[C@@H]3CCc4cc(O)ccc4[C@H]3CC[C@@]21C
- T/C [10]: 71 % of control and 85 % of control

Compound: NCCCC(N)C(=O)NCCCCCCNCCCCCCNC(=O)C(N)CCCN (stereo unspecified)
- T/C [4]: 86 % of control
- T/C [5]: 62 % of control
- T/C [1]: 77 % of control
- T/C [2]: 34 % of control
